Target: Full length human TBK1 (Homo sapiens (Human), UniProt Q9UHD2)
Experiment: Inhibition of TBK1 Enzyme (Example A)
Format: biochemical
Conditions: -log(IC50), IC50 molar; 3 nM TBK1, 25 μM ATP, 60 min RT
Method: Full length human TBK1 with an N-terminal His-tag was cloned into the pFastBacl vector and was transfected into Sf9 cells. 72 hours later the virus was harvested and amplified through two additional rounds of infections. Then 400 mL of the resulting virus stock was used to infect 10 L of Sf9 cells at a density of 2×10^6 cells/mL. Cell pellets were harvested 48 hours post infection and were lysed by freeze-thaw, homogenization and sonication in binding buffer (25 mM Tris pH7.6, 1 M NaCl, 10 mM imidazole, 0.5 mM TCEP) plus 0.1% Triton X-100 and complete protease inhibitor cocktail. The lysate was spun and the supernatant was purified with a HisTrap FF crude and a Superdex 200 pg column.
TBK1 inhibition is determined using a 384 well plate format in buffer containing 20 mM Hepes, pH 7.4, 10 mM MgCl2, 1 mM EDTA, 0.01% Brij-L23, 1 mM DTT. Each test compound is prepared in DMSO using 2.5-fold serial dilutions for 11 data points, which are added to the buffer so that each dilution contains 1% DMSO. To each well is added 2 μL of 1 μM 5FAM-DRHDSGLDSMKDE-NH2 (in buffer), 2 μL of diluted test compound (1% DMSO in buffer), and 5 μL of 3 nM TBK1 and 25 μM ATP (in buffer). The reaction mixture is incubated at RT for 60 min, and quenched by adding 20 mM Hepes, pH 7.4, 10 mM MgCl2, 1 mM EDTA, 0.01% Brij-L23, 1 mM DTT+25 mM EDTA. To quantify the fluorescent-labeled substrate and product following reaction, the test plate is loaded on a Caliper LC-3000, which measures percent of conversion by microfluidic-based separation. Corresponding IC50 values are calculated by non-linear curve fitting of the compound concentrations and percent of inhibition to the standard IC50 equation and reported as pIC50, i.e., −log(IC50), where IC50 is the molar concentration.

Chain of Full length human TBK1 (Q9UHD2 whole entry): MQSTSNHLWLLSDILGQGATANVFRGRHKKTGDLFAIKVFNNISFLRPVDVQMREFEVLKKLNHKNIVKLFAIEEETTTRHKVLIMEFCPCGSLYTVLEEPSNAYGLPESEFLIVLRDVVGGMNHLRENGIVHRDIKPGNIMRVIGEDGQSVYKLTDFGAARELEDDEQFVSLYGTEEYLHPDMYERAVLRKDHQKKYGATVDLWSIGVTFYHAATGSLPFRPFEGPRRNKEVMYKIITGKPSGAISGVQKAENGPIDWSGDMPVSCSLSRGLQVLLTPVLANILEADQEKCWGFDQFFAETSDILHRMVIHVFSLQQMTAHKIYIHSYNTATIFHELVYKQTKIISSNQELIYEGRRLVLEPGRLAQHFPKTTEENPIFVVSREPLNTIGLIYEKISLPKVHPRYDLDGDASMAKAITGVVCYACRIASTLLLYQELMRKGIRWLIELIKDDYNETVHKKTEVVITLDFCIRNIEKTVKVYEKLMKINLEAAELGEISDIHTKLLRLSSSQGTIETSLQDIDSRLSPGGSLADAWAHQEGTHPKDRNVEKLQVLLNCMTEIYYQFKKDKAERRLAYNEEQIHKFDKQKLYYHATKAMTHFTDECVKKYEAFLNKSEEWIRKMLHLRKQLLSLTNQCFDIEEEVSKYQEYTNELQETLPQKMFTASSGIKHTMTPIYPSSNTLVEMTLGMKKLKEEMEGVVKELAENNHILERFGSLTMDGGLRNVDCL

SMILES | TBK1 Inhibition (pIC50)
CC[C@@H](Nc1cc(-c2cnc(NC(=O)C3CC3)cn2)ccc1C#N)C(=O)N(C)C [Example 26, (R)-N-(5-(4-cyano-3-((1-(dimethylamino)-1-oxobutan-2-yl)amino)phenyl)pyrazin-2-yl)cyclopropanecarboxamide] | 8.5
N#Cc1ccc(-c2cnc(NC(=O)C3CC3)cn2)cc1NCC(=O)N1CCC(O)C1 (stereo not drawn) [Example 27, N-(5-(4-cyano-3-((2-(3-hydroxypyrrolidin-1-yl)-2-oxoethyl)amino)phenyl)pyrazin-2-yl)cyclopropanecarboxamide] | 6.9
CN(C)C(=O)C(CCO)Nc1cc(-c2cnc(NC(=O)C3CC3)cn2)ccc1C#N (stereo not drawn) [Example 28, N-(5-(4-cyano-3-((1-(dimethylamino)-4-hydroxy-1-oxobutan-2-yl)amino)phenyl)pyrazin-2-yl)cyclopropanecarboxamide] | 6.9
CCC(Nc1cc(-c2cnc(NC(=O)C3CC3)cn2)ccc1C#N)C(=O)N(C)CCO (stereo not drawn) [Example 29, N-(5-(4-cyano-3-((1-((2-hydroxyethyl)(methyl)amino)-1-oxobutan-2-yl)amino)phenyl)pyrazin-2-yl)cyclopropanecarboxamide] | 7.8
C[C@@H](Nc1cc(-c2cnc(NC(=O)C3CC3)cn2)cnc1C#N)C(=O)N(C)C [Example 30, (R)-N-(5-(6-cyano-5-((1-(dimethylamino)-1-oxopropan-2-yl)amino)pyridin-3-yl)pyrazin-2-yl)cyclopropanecarboxamide] | 5.8
CC[C@@H](Nc1cc(-c2cnc(NC(=O)C3CC3)cn2)cnc1C#N)C(=O)N(C)C [Example 31, (R)-N-(5-(6-cyano-5-((1-(dimethylamino)-1-oxobutan-2-yl)amino)pyridin-3-yl)pyrazin-2-yl)cyclopropanecarboxamide] | 6.3
C[C@@H](O)[C@H](Nc1cc(-c2cnc(NC(=O)C3CC3)cn2)cnc1C#N)C(=O)N(C)C [Example 32, N-(5-(6-cyano-5-(((2S,3R)-1-(dimethylamino)-3-hydroxy-1-oxobutan-2-yl)amino)pyridin-3-yl)pyrazin-2-yl)cyclopropanecarboxamide] | 6.8
CN(C)C(=O)[C@@H](CC(F)F)Nc1cc(-c2cnc(NC(=O)C3CC3)cn2)ccc1C#N [Example 33, (R)-N-(5-(4-cyano-3-((1-(dimethylamino)-4,4-difluoro-1-oxobutan-2-yl)amino)phenyl)pyrazin-2-yl)cyclopropanecarboxamide] | 5.9
CN(C)C(=O)[C@H](CC(F)F)Nc1cc(-c2cnc(NC(=O)C3CC3)cn2)ccc1C#N [Example 34, (S)-N-(5-(4-cyano-3-((1-(dimethylamino)-4,4-difluoro-1-oxobutan-2-yl)amino)phenyl)pyrazin-2-yl)cyclopropanecarboxamide] | 8.2
CCC(Nc1cc(-c2cnc(NC(=O)C3CC3)cn2)cnc1C#N)C(=O)N(C)CCO (stereo not drawn) [Example 35, N-(5-(6-cyano-5-((1-((2-hydroxyethyl)(methyl)amino)-1-oxobutan-2-yl)amino)pyridin-3-yl)pyrazin-2-yl)cyclopropanecarboxamide] | 6.9
CCC(Nc1cc(-c2cnc(NC(=O)C3CC3)cn2)cnc1C#N)C(=O)N(C)C1CC1 (stereo not drawn) [Example 36, N-(5-(6-cyano-5-((1-(cyclopropyl(methyl)amino)-1-oxobutan-2-yl)amino)pyridin-3-yl)pyrazin-2-yl)cyclopropanecarboxamide] | 7.3
C[C@@H](O)[C@@H](Nc1cc(-c2cnc(NC(=O)C3CC3)cn2)cnc1C#N)C(=O)N(C)C [Example 37, N-(5-(6-cyano-5-(((2R,3R)-1-(dimethylamino)-3-hydroxy-1-oxobutan-2-yl)amino)pyridin-3-yl)pyrazin-2-yl)cyclopropanecarboxamide] | 6.9
C[C@H](O)[C@@H](Nc1cc(-c2cnc(NC(=O)C3CC3)cn2)cnc1C#N)C(=O)N(C)C [Example 38, N-(5-(6-cyano-5-(((2R,3S)-1-(dimethylamino)-3-hydroxy-1-oxobutan-2-yl)amino)pyridin-3-yl)pyrazin-2-yl)cyclopropanecarboxamide] | 5.8
C[C@H](O)[C@H](Nc1cc(-c2cnc(NC(=O)C3CC3)cn2)cnc1C#N)C(=O)N(C)C [Example 39, N-(5-(6-cyano-5-(((2S,3S)-1-(dimethylamino)-3-hydroxy-1-oxobutan-2-yl)amino)pyridin-3-yl)pyrazin-2-yl)cyclopropanecarboxamide] | 7.0
CN(CC(F)(F)F)C(=O)CNc1cc(-c2cnc(NC(=O)C3CC3)cn2)cnc1C#N [Example 40, N-(5-(6-cyano-5-((2-(methyl(2,2,2-trifluoroethyl)amino)-2-oxoethyl)amino)pyridin-3-yl)pyrazin-2-yl)cyclopropanecarboxamide] | 7.5
CC(Nc1cc(-c2cnc(NC(=O)C3CC3)cn2)cnc1C#N)C(=O)N(C)CC(F)(F)F (stereo not drawn) [Example 41, N-(5-(6-cyano-5-((1-(methyl(2,2,2-trifluoroethyl)amino)-1-oxopropan-2-yl)amino)pyridin-3-yl)pyrazin-2-yl)cyclopropanecarboxamide] | 7.8
COCC(Nc1cc(-c2cnc(NC(=O)C3CC3)cn2)cnc1C#N)C(=O)N(C)C (stereo not drawn) [Example 42, N-(5-(6-cyano-5-((1-(dimethylamino)-3-methoxy-1-oxopropan-2-yl)amino)pyridin-3-yl)pyrazin-2-yl)cyclopropanecarboxamide] | 6.8
CC(Nc1cc(-c2cnc(NC(=O)C3CC3)cn2)cnc1C#N)C(=O)N(C)CC#N (stereo not drawn) [Example 43, N-(5-(6-cyano-5-((1-((cyanomethyl)(methyl)amino)-1-oxopropan-2-yl)amino)pyridin-3-yl)pyrazin-2-yl)cyclopropanecarboxamide] | 7.7
CN(C)C(=O)C(CC#N)Nc1cc(-c2cnc(NC(=O)C3CC3)cn2)cnc1C#N (stereo not drawn) [Example 44, N-(5-(6-cyano-5-((3-cyano-1-(dimethylamino)-1-oxopropan-2-yl)amino)pyridin-3-yl)pyrazin-2-yl)cyclopropanecarboxamide] | 6.2

The remaining lines, values ahead:

TBK1 Inhibition (pIC50) | SMILES
7.5 | N#Cc1ncc(-c2cnc(NC(=O)C3CC3)cn2)cc1NCC(=O)N1CCC[C@@H]1C#N [Example 45, (R)-N-(5-(6-cyano-5-((2-(2-cyanopyrrolidin-1-yl)-2-oxoethyl)amino)pyridin-3-yl)pyrazin-2-yl)cyclopropanecarboxamide]
8.0 | CC(Nc1cc(-c2cnc(NC(=O)C3CC3)cn2)cnc1C#N)C(=O)N(C)CC(F)F (stereo not drawn) [Example 46, N-(5-(6-cyano-5-((1-((2,2-difluoroethyl)(methyl)amino)-1-oxopropan-2-yl)amino)pyridin-3-yl)pyrazin-2-yl)cyclopropanecarboxamide]
7.7 | CC(Nc1cc(-c2cnc(NC(=O)C3CC3)cn2)cnc1C#N)C(=O)N(C)CCF (stereo not drawn) [Example 47, N-(5-(6-cyano-5-((1-((2-fluoroethyl)(methyl)amino)-1-oxopropan-2-yl)amino)pyridin-3-yl)pyrazin-2-yl)cyclopropanecarboxamide]
8.2 | N#Cc1ncc(-c2cnc(NC(=O)C3CC3)cn2)cc1NCC(=O)N1CCC[C@@H]1C(F)(F)F [Example 48, (R)-N-(5-(6-cyano-5-((2-oxo-2-(2-(trifluoromethyl)pyrrolidin-1-yl)ethyl)amino)pyridin-3-yl)pyrazin-2-yl)cyclopropanecarboxamide]
7.2 | CN(CC#N)C(=O)CNc1cc(-c2cnc(NC(=O)C3CC3)cn2)cnc1C#N [Example 49, N-(5-(6-cyano-5-((2-((cyanomethyl)(methyl)amino)-2-oxoethyl)amino)pyridin-3-yl)pyrazin-2-yl)cyclopropanecarboxamide]
7.9 | C[C@H](Nc1cc(-c2cnc(NC(=O)C3CC3)cn2)cnc1C#N)C(=O)N(C)CC#N [Example 50, (S)-N-(5-(6-cyano-5-((1-((cyanomethyl)(methyl)amino)-1-oxopropan-2-yl)amino)pyridin-3-yl)pyrazin-2-yl)cyclopropanecarboxamide]
7.4 | CC[C@H](Nc1cc(-c2cnc(NC(=O)C3CC3)cn2)cnc1C#N)C(=O)N(C)CC#N [Example 51, (S)-N-(5-(6-cyano-5-((1-((cyanomethyl)(methyl)amino)-1-oxobutan-2-yl)amino)pyridin-3-yl)pyrazin-2-yl)cyclopropanecarboxamide]
6.5 | COCC[C@H](Nc1cc(-c2cnc(NC(=O)C3CC3)cn2)cnc1C#N)C(=O)N(C)CCO [Example 52, (S)-N-(5-(6-cyano-5-((1-((2-hydroxyethyl)(methyl)amino)-4-methoxy-1-oxobutan-2-yl)amino)pyridin-3-yl)pyrazin-2-yl)cyclopropanecarboxamide]
